Source: patent US20240174624A1, “CHIRAL N-(1,3,4-OXADIAZOLE-2-YL)PHENYL CARBOXYLIC ACID AMIDES AND THEIR USE AS HERBICIDES” (Bayer Aktiengesellschaft, priority 2021, published 2024)

Legend:
TRZAS [1] = assay: Pre-emergence damage to crop plants; type: in vivo, Triticum aestiva; conditions: comparative experiment
Excerpt: (§1) Seeds of monocotyledonous and dicotyledonous weed plants and crop plants are laid out in sandy loam soil in wood-fibre pots and covered with soil. The compounds of the invention, formulated in the form of wettable powders (WP) or as emulsion concentrates (EC), are then applied to the surface of the covering soil in the form of an aqueous suspension or emulsion at a water application rate equivalent to 600 to 800 l/ha, with addition of 0.2% wetting agent. After the treatment, the pots are placed in a greenhouse and kept under good growth conditions for the trial plants. The damage to the test plants is scored visually after a test period of 3 weeks by comparison with untreated controls (herbicidal activity in percent (%): 100% activity=the plants have died, 0% activity=like control plants). […] The tables below illustrate, in an illustrative manner, the post-emergence herbicidal action of the compounds of the invention, the herbicidal activity being stated in percent. In the experiments that follow, the herbicidal action of the compounds of the invention and that of the corresponding known racemic compounds closest from WO2012126932 and WO2018202535 were compared under the above-specified conditions by the pre-emergence and post-emergence method. The example numbers given in the tables relate to the compounds disclosed in the respective documents.

GLXMA = assay: Pre-emergence damage to crop plants; type: in vivo, Glycine max; conditions: 80 g a.i./ha, comparative experiment
Excerpt: as §1

ECHCG [2] = assay: Post-emergence herbicidal action; type: in vivo, Echinochloa crus-galli; conditions: for Herbicidal action against ECHCG: 5 g a.i./ha, comparative experiment; for Post-emergence action against ECHCG: assessed after about 3 weeks
Method: (§2) Seeds of monocotyledonous and dicotyledonous weed and crop plants are laid out in sandy loam soil in wood-fibre pots, covered with soil and cultivated in a greenhouse under good growth conditions. 2 to 3 weeks after sowing, the test plants are treated at the one-leaf stage. The compounds of the invention, formulated in the form of wettable powders (WP) or as emulsion concentrates (EC), are then sprayed onto the green parts of the plants in the form of an aqueous suspension or emulsion at a water application rate equating to 600 to 800 l/ha, with addition of 0.2% wetting agent. After the test plants have been left to stand in the greenhouse under optimal growth conditions for about 3 weeks, the action of the preparations is assessed visually in comparison to untreated controls (herbicidal action in percent (%): 100% activity=the plants have died, 0% activity=like control plants). […] The tables below illustrate, in an illustrative manner, the post-emergence herbicidal action of the compounds of the invention, the herbicidal activity being stated in percent. In the experiments that follow, the herbicidal action of the compounds of the invention and that of the corresponding known racemic compounds closest from WO2012126932 and WO2018202535 were compared under the above-specified conditions by the pre-emergence and post-emergence method. The example numbers given in the tables relate to the compounds disclosed in the respective documents.

ORYZA = assay: Post-emergence damage to crop plants; type: in vivo, Oryza sativa; conditions: 5 g a.i./ha, comparative experiment
Method: as §2

ALOMY = assay: Pre-emergence herbicidal action; type: in vivo, Alopecurus myosuroides; conditions: 80 g/ha, scored after 3 weeks
Excerpt: as §1

AMARE [3] = assay: Pre-emergence herbicidal action; type: in vivo, Amaranthus retroflexus; conditions: scored after 3 weeks
Excerpt: as §1, with “percent.” for “percent. In the experiments that follow, the herbicidal action of the compounds of the invention and that of the corresponding known racemic compounds closest from WO2012126932 and WO2018202535 were compared under the above-specified conditions by the pre-emergence and post-emergence method. The example numbers given in the tables relate to the compounds disclosed in the respective documents.”

AVEFA = assay: Pre-emergence herbicidal action; type: in vivo, Avena fatua; conditions: 80 g/ha, scored after 3 weeks
Excerpt: as §1

ECHCG [4] = assay: Pre-emergence herbicidal action; type: in vivo, Echinochloa crus-galli; conditions: scored after 3 weeks
Excerpt: as §1, with “percent.” for “percent. In the experiments that follow, the herbicidal action of the compounds of the invention and that of the corresponding known racemic compounds closest from WO2012126932 and WO2018202535 were compared under the above-specified conditions by the pre-emergence and post-emergence method. The example numbers given in the tables relate to the compounds disclosed in the respective documents.”

LOLRI = assay: Pre-emergence herbicidal action; type: in vivo, Lolium rigidum; conditions: 80 g/ha, scored after 3 weeks
Excerpt: as §1

MATIN [5] = assay: Pre-emergence herbicidal action; type: in vivo, Matricaria inodora; conditions: scored after 3 weeks
Excerpt: as §1

POLCO [6] = assay: Pre-emergence herbicidal action; type: in vivo, Polygonum convolvulus; conditions: 80 g/ha, scored after 3 weeks
Excerpt: as §1

SETVI [7] = assay: Pre-emergence herbicidal action; type: in vivo, Setaria viridis; conditions: scored after 3 weeks
Excerpt: as §1

VERPE [8] = assay: Pre-emergence herbicidal action; type: in vivo, Veronica persica; conditions: scored after 3 weeks
Excerpt: as §1

VIOTR [9] = assay: Pre-emergence herbicidal action; type: in vivo, Viola tricolor; conditions: scored after 3 weeks
Excerpt: as §1, with “percent.” for “percent. In the experiments that follow, the herbicidal action of the compounds of the invention and that of the corresponding known racemic compounds closest from WO2012126932 and WO2018202535 were compared under the above-specified conditions by the pre-emergence and post-emergence method. The example numbers given in the tables relate to the compounds disclosed in the respective documents.”

AMARE [10] = assay: Post-emergence herbicidal action; type: in vivo, Amaranthus retroflexus; conditions: assessed after about 3 weeks
Method: as §2, with “percent.” for “percent. In the experiments that follow, the herbicidal action of the compounds of the invention and that of the corresponding known racemic compounds closest from WO2012126932 and WO2018202535 were compared under the above-specified conditions by the pre-emergence and post-emergence method. The example numbers given in the tables relate to the compounds disclosed in the respective documents.”

MATIN [11] = assay: Post-emergence herbicidal action; type: in vivo, Matricaria inodora; conditions: assessed after about 3 weeks
Method: as §2, with “percent.” for “percent. In the experiments that follow, the herbicidal action of the compounds of the invention and that of the corresponding known racemic compounds closest from WO2012126932 and WO2018202535 were compared under the above-specified conditions by the pre-emergence and post-emergence method. The example numbers given in the tables relate to the compounds disclosed in the respective documents.”

PHBPU = assay: Post-emergence herbicidal action; type: in vivo, Pharbitis purpurea; conditions: assessed after about 3 weeks
Method: as §2, with “percent.” for “percent. In the experiments that follow, the herbicidal action of the compounds of the invention and that of the corresponding known racemic compounds closest from WO2012126932 and WO2018202535 were compared under the above-specified conditions by the pre-emergence and post-emergence method. The example numbers given in the tables relate to the compounds disclosed in the respective documents.”

POLCO [12] = assay: Post-emergence herbicidal action; type: in vivo, Polygonum convolvulus; conditions: 20 g/ha, assessed after about 3 weeks
Method: as §2, with “percent.” for “percent. In the experiments that follow, the herbicidal action of the compounds of the invention and that of the corresponding known racemic compounds closest from WO2012126932 and WO2018202535 were compared under the above-specified conditions by the pre-emergence and post-emergence method. The example numbers given in the tables relate to the compounds disclosed in the respective documents.”

SETVI [13] = assay: Post-emergence herbicidal action; type: in vivo, Setaria viridis; conditions: assessed after about 3 weeks
Method: as §2

VERPE [14] = assay: Post-emergence herbicidal action; type: in vivo, Veronica persica; conditions: assessed after about 3 weeks
Method: as §2

VIOTR [15] = assay: Post-emergence herbicidal action; type: in vivo, Viola tricolor; conditions: assessed after about 3 weeks
Method: as §2

DIGSA [16] = assay: Pre-emergence herbicidal action; type: in vivo, Digitaria sanguinalis; conditions: scored after 3 weeks
Excerpt: as §1, with “percent.” for “percent. In the experiments that follow, the herbicidal action of the compounds of the invention and that of the corresponding known racemic compounds closest from WO2012126932 and WO2018202535 were compared under the above-specified conditions by the pre-emergence and post-emergence method. The example numbers given in the tables relate to the compounds disclosed in the respective documents.”

STEME [17] = assay: Pre-emergence herbicidal action; type: in vivo, Stellaria media; conditions: scored after 3 weeks
Excerpt: as §1

ZEAMX = assay: Pre-emergence damage to crop plants; type: in vivo, Zea mays; conditions: comparative experiment
Excerpt: as §1

BRSNW = assay: Pre-emergence damage to crop plants; type: in vivo, Brassica napus; conditions: 20 g a.i./ha, comparative experiment
Excerpt: as §1

DIGSA [18] = assay: Post-emergence herbicidal action; type: in vivo, Digitaria sanguinalis; conditions: assessed after about 3 weeks
Method: as §2

STEME [19] = assay: Post-emergence herbicidal action; type: in vivo, Stellaria media; conditions: 20 g/ha, assessed after about 3 weeks
Method: as §2

TRZAS [20] = assay: Post-emergence damage to crop plants; type: in vivo, Triticum aestiva; conditions: comparative experiment
Method: as §2

Structure (SMILES) | Damage to TRZAS (TRZAS [1]; 20 g a.i./ha) [%] | Damage to TRZAS (TRZAS [1]; 80 g a.i./ha) [%] | Damage to GLXMA (GLXMA) [%] | Herbicidal action against ECHCG (ECHCG [2]) [%] | Damage to ORYZA (ORYZA) [%] | Pre-emergence action against AMARE (AMARE [3]; 20 g/ha) [%] | Pre-emergence action against AMARE (AMARE [3]; 80 g/ha) [%] | Pre-emergence action against ECHCG (ECHCG [4]; 20 g/ha) [%] | Pre-emergence action against ECHCG (ECHCG [4]; 80 g/ha) [%] | Pre-emergence action against MATIN (MATIN [5]; 80 g/ha) [%] | Pre-emergence action against SETVI (SETVI [7]; 80 g/ha) [%] | Pre-emergence action against VIOTR (VIOTR [9]; 20 g/ha) [%] | Pre-emergence action against VIOTR (VIOTR [9]; 80 g/ha) [%] | Post-emergence action against AMARE (AMARE [10]; 5 g/ha) [%] | Post-emergence action against AMARE (AMARE [10]; 20 g/ha) [%] | Post-emergence action against ECHCG (ECHCG [2]; 5 g/ha) [%] | Post-emergence action against ECHCG (ECHCG [2]; 20 g/ha) [%] | Post-emergence action against MATIN (MATIN [11]; 20 g/ha) [%] | Post-emergence action against PHBPU (PHBPU; 20 g/ha) [%] | Post-emergence action against SETVI (SETVI [13]; 20 g/ha) [%] | also measured
C[S+]([O-])c1c(C(F)F)ccc(C(=O)Nc2nnco2)c1Cl (racemic) [Racemate, known from WO2018202535, 2-chloro-N-(1,3,4-oxadiazol-2-yl)-3-[(rac)-methylsulfinyl]-4-(difluoromethyl)benzamide, reference compound] | 70 | 100 | 80 | 70 | 60 | – | – | – | – | – | – | – | – | – | – | – | – | – | – | – | –
C[S+]([O-])c1c(C(F)F)ccc(C(=O)Nc2nnco2)c1Cl (stereo in doubt) [Example I-2, 2-chloro-N-(1,3,4-oxadiazol-2-yl)-3-[(S)-methylsulfinyl]-4-(difluoromethyl)benzamide] | 20 | 70 | 30 | 90 | 0 | 100 | 100 | 100 | 100 | 100 | 100 | 100 | 100 | 100 | 100 | 90 | 90 | 90 | 90 | 90 | Pre-emergence action against ALOMY (ALOMY): 90%; Pre-emergence action against AVEFA (AVEFA): 100%; Pre-emergence action against LOLRI (LOLRI): 90%; Pre-emergence action against MATIN (MATIN [5]; 20 g/ha): 100%; Pre-emergence action against POLCO (POLCO [6]): 90%; Pre-emergence action against SETVI (SETVI [7]; 20 g/ha): 100%; Pre-emergence action against VERPE (VERPE [8]; 20 g/ha): 80%; Pre-emergence action against VERPE (VERPE [8]; 80 g/ha): 80%; Post-emergence action against MATIN (MATIN [11]; 5 g/ha): 90%; Post-emergence action against POLCO (POLCO [12]): 80%; Post-emergence action against SETVI (SETVI [13]; 5 g/ha): 90%; Post-emergence action against VERPE (VERPE [14]; 5 g/ha): 90%; Post-emergence action against VERPE (VERPE [14]; 20 g/ha): 100%; Post-emergence action against VIOTR (VIOTR [15]; 5 g/ha): 90%; Post-emergence action against VIOTR (VIOTR [15]; 20 g/ha): 100%
Cc1c(C(=O)Nc2nnco2)ccc(C(F)(F)F)c1[S+](C)[O-] (stereo in doubt) [Example I-3, 2-methyl-N-(1,3,4-oxadiazol-2-yl)-3-[(S)-methylsulfinyl]-4-(trifluoromethyl)benzamide] | 0 | 30 | 50 | – | 30 | 100 | 100 | 90 | 100 | 90 | 90 | 90 | 100 | 90 | 90 | 80 | 90 | 80 | 80 | 90 | Pre-emergence action against DIGSA (DIGSA [16]; 20 g/ha): 100%; Pre-emergence action against DIGSA (DIGSA [16]; 80 g/ha): 100%; Pre-emergence action against STEME (STEME [17]; 20 g/ha): 80%; Pre-emergence action against STEME (STEME [17]; 80 g/ha): 100%; Damage to ZEAMX (ZEAMX; 20 g a.i./ha): 0%; Damage to ZEAMX (ZEAMX; 80 g a.i./ha): 0%; Damage to BRSNW (BRSNW): 70%; Post-emergence action against DIGSA (DIGSA [18]; 5 g/ha): 90%; Post-emergence action against DIGSA (DIGSA [18]; 20 g/ha): 90%; Post-emergence action against PHBPU (PHBPU; 5 g/ha): 80%; Post-emergence action against STEME (STEME [19]): 80%; Post-emergence action against VIOTR (VIOTR [15]; 20 g/ha): 90%; Damage to TRZAS (TRZAS [20]; 5 g a.i./ha): 20%; Damage to TRZAS (TRZAS [20]; 20 g a.i./ha): 30%
